Target: T1, human ERα binding to flcERE (Homo sapiens, UniProt P03372)
T1 construct: Full-length FLAG-tagged human ERα was expressed and purified as described previously (27); FLAG; made in house
T1 sequence (P03372 1-595): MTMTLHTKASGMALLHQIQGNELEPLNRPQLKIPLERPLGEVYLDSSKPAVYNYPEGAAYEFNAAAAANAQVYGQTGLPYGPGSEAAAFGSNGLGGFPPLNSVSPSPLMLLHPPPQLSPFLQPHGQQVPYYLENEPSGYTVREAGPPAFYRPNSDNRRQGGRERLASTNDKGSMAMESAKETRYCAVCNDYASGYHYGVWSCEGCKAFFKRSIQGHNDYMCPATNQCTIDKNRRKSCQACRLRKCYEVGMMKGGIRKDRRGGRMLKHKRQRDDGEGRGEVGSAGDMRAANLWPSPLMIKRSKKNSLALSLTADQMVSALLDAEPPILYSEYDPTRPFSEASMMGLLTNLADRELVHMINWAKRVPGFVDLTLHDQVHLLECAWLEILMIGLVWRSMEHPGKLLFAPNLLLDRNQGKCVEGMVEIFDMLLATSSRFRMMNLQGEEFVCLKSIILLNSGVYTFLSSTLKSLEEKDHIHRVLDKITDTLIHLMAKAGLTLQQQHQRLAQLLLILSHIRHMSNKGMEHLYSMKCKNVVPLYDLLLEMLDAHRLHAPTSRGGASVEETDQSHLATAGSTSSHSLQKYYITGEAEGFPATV
Experiment: FAMA: inhibition of ERα binding to flcERE
Details: FAMA, binding to HRE, 5 concentrations 0.5-10 μM, sequential method; read-out: IC50 ERα
Protocol: Prior to screening, the 10 mM library stocks were diluted to produce replica libraries in 384-well plates containing each small molecule at 0.25 mM (in DMSO). In our initial studies we were concerned that forming the flcERE-ERα complex first and then adding the candidate small molecule inhibitors would miss small molecules that bind at the interface. We therefore screened using the “sequential” method in which the candidate small molecules were first incubated with ERα and followed by addition of the flcERE. The assay for binding of ERα to the flcERE is a modification of our earlier assay (27). Assays were carried out at room temperature in black wall 384-well microplates (Greiner/Bio-One) in a total volume of 10 μl in buffer containing 20 mM Tris pH 7.5, 10% glycerol, 0.2 mM EDTA, 2 mM DTT, 100 mM KCl, 0.5 ng/μl poly dl:dC, […] bovine serum albumin and 100 nM 17β-estradiol (E2). For high throughput screening, a master mix without ERα and probe was prepared at 4° C. The master mix was divided into 2 parts. ERα was added to one part to 5 nM in the final assays. 7 μl of the ERα-containing mix was then dispensed into each well of a 384-well plate on ice. 100 nl of the compounds being tested was then added using a pin-transporter (V & P Scientific, Inc, CA) to a final concentration of 2.5 μM. The samples were mixed using the pin-transporter and sedimented by centrifugation for 2 min. at 4° C. and incubated on ice for 10 min. The flcERE probe was added to the other aliquot of the mix to 1 nM. 3 μl of the mix containing the flcERE probe was added to each well containing ERα and the test compound. The samples were mixed using the pin-transporter, the plates were briefly centrifuged and incubated at room temperature for 10 min. and fluorescence anisotropy (FA) was measured using a BMG PheraStar (BMG Labtech) microplate reader (module: 485 520) with excitation at 485λ and emission at 520λ. To identify small molecules that were highly fluorescent, or quench fluorescence, fluorescence intensity was also measured.
(§1) Dose response curves for selected compounds were carried out as described for the HTS screen except that each well contained the indicated concentration of test compound. PR assays were carried out in the same buffer used for ERα assays and contained 1 nM flcPRE and 11 nM PR-B and 100 nM progesterone. The buffer used for AR was similar but also contained 5 μM ZnCl, 5 mM NaF, 0.6 μM CHAPS and 100 nM dihydrotestosterone. AR assays contained 1 nM flcARE and 50 nM full-length wild-type AR.

Compound	IC50
Nc1c(S(=O)(=O)O)cc(Nc2ccc(S(=O)(=O)O)c(Nc3nc(Cl)nc(Cl)n3)c2)c2c1C(=O)c1ccccc1C2=O [Compound 9545]	0.7 µM
CCN(CC)CCOc1ccc(Cl)cc1Cc1ccccc1 [Compound 9548]	1 µM
CCCCCN(CCCCC)CCC(O)c1cccc2ccccc12 (stereo not drawn) [Compound 9671]	> 10 µM
O=C(Nc1cc[c]([Sb](=[O])([OH])[OH])cc1)c1ccccc1 [Compound 15596]	5 µM
[Cu].c1ccc2c(c1)C1=NC2=NC2=NC(=NC3=NC(=NC4=NC(=N1)c1ccccc14)c1ccccc13)c1ccccc12 [Compound 43628]	> 10 µM
O=C1NC(=S)NC(=O)C1=Cc1cccc2cc3ccccc3cc12 [Compound 90737]	10 µM

Target: T2, human androgen receptor (AR) binding to flARE (Homo sapiens, UniProt P10275)
T2 construct: AR assays contained 1 nM flcARE and 50 nM full-length wild-type AR; FLAG; made in house
T2 sequence (P10275 1-920): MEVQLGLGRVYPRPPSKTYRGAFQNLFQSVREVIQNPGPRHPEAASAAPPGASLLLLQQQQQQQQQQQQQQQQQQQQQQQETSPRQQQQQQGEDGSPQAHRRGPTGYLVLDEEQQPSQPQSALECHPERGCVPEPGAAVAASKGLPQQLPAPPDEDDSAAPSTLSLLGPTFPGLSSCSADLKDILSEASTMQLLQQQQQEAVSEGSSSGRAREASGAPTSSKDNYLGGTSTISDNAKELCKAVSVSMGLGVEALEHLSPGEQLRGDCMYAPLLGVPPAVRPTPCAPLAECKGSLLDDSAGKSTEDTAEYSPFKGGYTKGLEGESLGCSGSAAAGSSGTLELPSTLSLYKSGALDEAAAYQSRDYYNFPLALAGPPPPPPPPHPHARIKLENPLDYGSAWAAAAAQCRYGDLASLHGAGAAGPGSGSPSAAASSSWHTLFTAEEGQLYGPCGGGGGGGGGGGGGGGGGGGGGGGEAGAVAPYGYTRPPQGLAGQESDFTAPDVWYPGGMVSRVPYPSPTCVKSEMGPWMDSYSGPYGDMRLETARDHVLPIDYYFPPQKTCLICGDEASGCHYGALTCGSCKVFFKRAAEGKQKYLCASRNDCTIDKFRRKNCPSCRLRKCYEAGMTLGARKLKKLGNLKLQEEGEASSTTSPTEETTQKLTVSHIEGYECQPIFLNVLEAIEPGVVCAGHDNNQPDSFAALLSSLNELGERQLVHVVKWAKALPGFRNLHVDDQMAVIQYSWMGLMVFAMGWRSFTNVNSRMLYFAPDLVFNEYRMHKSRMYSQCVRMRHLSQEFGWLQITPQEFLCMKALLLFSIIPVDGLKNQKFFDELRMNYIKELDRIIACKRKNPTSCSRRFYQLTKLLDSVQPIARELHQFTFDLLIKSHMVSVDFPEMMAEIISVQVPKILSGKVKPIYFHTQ
Experiment: FAMA: inhibition of AR binding to flcARE
Details: binding to HRE, 5 concentrations 0.5-10 μM, sequential method
Protocol: as §1
(§2) Specificity was evaluated in dose-response studies by quantitative FAMA using purified full-length human PR binding to a fluorescein-labeled progesterone/glucocorticoid response element (flPRE) and full-length human androgen receptor (AR) binding to a fluorescein-labeled androgen response element (flARE).

Compound	IC50
Nc1c(S(=O)(=O)O)cc(Nc2ccc(S(=O)(=O)O)c(Nc3nc(Cl)nc(Cl)n3)c2)c2c1C(=O)c1ccccc1C2=O [Compound 9545]	3 µM
CCN(CC)CCOc1ccc(Cl)cc1Cc1ccccc1 [Compound 9548]	4 µM
CCCCCN(CCCCC)CCC(O)c1cccc2ccccc12 (stereo not drawn) [Compound 9671]	> 10 µM
O=C(Nc1cc[c]([Sb](=[O])([OH])[OH])cc1)c1ccccc1 [Compound 15596]	> 10 µM
[Cu].c1ccc2c(c1)C1=NC2=NC2=NC(=NC3=NC(=NC4=NC(=N1)c1ccccc14)c1ccccc13)c1ccccc12 [Compound 43628]	> 10 µM
O=C1NC(=S)NC(=O)C1=Cc1cccc2cc3ccccc3cc12 [Compound 90737]	> 10 µM

Target: T3, human PR-B binding to flPRE (Homo sapiens, UniProt P06401)
T3 construct: FLAG; made in house
T3 sequence (P06401 1-933): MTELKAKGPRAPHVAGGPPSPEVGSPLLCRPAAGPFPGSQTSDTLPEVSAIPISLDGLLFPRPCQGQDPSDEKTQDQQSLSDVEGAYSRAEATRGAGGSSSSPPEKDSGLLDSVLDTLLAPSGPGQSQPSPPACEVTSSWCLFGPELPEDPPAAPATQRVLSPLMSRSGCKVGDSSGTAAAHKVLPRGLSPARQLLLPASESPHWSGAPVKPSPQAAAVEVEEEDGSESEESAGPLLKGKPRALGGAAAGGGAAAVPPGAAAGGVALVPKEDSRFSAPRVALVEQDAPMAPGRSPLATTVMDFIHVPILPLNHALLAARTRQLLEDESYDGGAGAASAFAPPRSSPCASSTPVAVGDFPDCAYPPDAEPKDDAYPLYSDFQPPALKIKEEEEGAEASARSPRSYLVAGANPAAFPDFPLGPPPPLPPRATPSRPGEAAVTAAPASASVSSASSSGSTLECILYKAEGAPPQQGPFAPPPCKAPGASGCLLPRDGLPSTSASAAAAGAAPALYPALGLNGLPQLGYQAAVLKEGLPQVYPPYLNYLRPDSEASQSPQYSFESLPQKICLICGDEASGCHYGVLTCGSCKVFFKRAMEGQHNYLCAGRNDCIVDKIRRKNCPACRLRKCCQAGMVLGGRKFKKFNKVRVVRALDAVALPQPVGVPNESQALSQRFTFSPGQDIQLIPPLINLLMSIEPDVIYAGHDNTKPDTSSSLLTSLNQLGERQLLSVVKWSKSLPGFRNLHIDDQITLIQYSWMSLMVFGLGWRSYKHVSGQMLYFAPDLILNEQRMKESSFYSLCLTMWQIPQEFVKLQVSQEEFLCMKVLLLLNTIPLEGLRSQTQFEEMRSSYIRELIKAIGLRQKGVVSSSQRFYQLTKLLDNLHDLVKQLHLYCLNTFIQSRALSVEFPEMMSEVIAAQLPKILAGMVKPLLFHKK
Experiment: FAMA: inhibition of PR binding to flcPRE
Details: binding to HRE, 5 concentrations 0.5-10 μM, sequential method
Protocol: as §1, §2

Compound	IC50
Nc1c(S(=O)(=O)O)cc(Nc2ccc(S(=O)(=O)O)c(Nc3nc(Cl)nc(Cl)n3)c2)c2c1C(=O)c1ccccc1C2=O [Compound 9545]	3.8 µM
CCN(CC)CCOc1ccc(Cl)cc1Cc1ccccc1 [Compound 9548]	5 µM
CCCCCN(CCCCC)CCC(O)c1cccc2ccccc12 (stereo not drawn) [Compound 9671]	> 10 µM
O=C(Nc1cc[c]([Sb](=[O])([OH])[OH])cc1)c1ccccc1 [Compound 15596]	> 10 µM
[Cu].c1ccc2c(c1)C1=NC2=NC2=NC(=NC3=NC(=NC4=NC(=N1)c1ccccc14)c1ccccc13)c1ccccc12 [Compound 43628]	> 10 µM
O=C1NC(=S)NC(=O)C1=Cc1cccc2cc3ccccc3cc12 [Compound 90737]	> 10 µM

— patent publication US8871751B2, “Compositions and methods relating to nuclear hormone and steroid hormone receptors including inhibitors of estrogen receptor alpha-mediated gene expression and inhibition of breast cancer” (The Board of Trustees of the University of Illinois, priority 2008, dated 2014)
